Assay results as given in patent publication US10183027B2, “Lanthanide toolbox for multi-modal, non-invasive tumor specific theranostic prodrugs” (priority 2016, dated 2019).

Key:
[1] = tested on: HeLa cells; test: Two-photon confocal microscopy of HeLa cells with PtEuL / EuL; assay type: cell-based
Description: Near infrared (NIR) excitation has increasingly been used in live cell imaging and photodynamic or photoactivated chemo-therapy because NIR photon (λ=650-900 nm) can penetrate deeper into tissues with pinpoint accuracy and little collateral photodamage. The two-photon photophysical properties of some antenna ligands of lanthanide complexes have been studied previously. The two-photon induced cytotoxicity of the EuL and PtEuL complexes towards HeLa cells after incubation at different dose concentrations (PtEuL: 0, 1, 2, 5, 10 μM; EuL: 0, 10, 20, 50, 100 μM) for 24 hours was studied using two-photon (λex=730 nm) confocal microscopy (FIGS. 30A-30C and FIGS. 33A and 33B). […] This is probably due to the lower cellular uptake rate of EuL because we no Eu emission was observed from the HeLa cells even after incubation in 100 μM of EuL, ceteris paribus.

[2] = tested on: HeLa cells; test: Confocal microscopy of light-induced cytotoxicity of RuEuL; assay type: cell-based, human; details: 50 μM RuEuL or 10 μM PtEuL, 6 hours, 7 mW
Description: The light-induced cytotoxicity of RuEuL towards HeLa cells was also investigated by confocal microscopy (FIG. 26B) with the PtEuL complex tested under identical conditions for comparison. […] In cell culture studies, red Eu(III) emission from RuEuL was observed after 15-min irradiation. (FIG. 26A) The emission intensity increased with longer irradiation time because more excitation energy induced the dissociation of more Ru(II) moieties from the parent molecules, and the resulting EuL units generated stronger light emission. […] PtEuL is photo-activated upon ultraviolet A irradiation (λ=365 nm). However, UVA irradiation could cause severe adverse effects on human cells.

[3] = tested on: Plasmid DNA; test: Agarose gel electrophoresis of plasmid DNA after UVA irradiation (PtEuL); assay type: biochemical; details: 20 μM, UVA light dose 50 J m^−2
Description: The DNA gel images were obtained using GelRed Nucleic Acid Stain (BIOTIUM).
(§1) Direct binding of PtEuL with DNA in dark were studied by circular dichroism (CD). […] The interaction of photo-activated PtEuL with DNA was examined by agarose gel electrophoresis (FIG. 29B). After UVA irradiation with PtEuL, conversion of the supercoiled conformer of the plasmid DNA to its open-circular conformer, which indicates DNA nicking (single strand break) and linear conformer, which indicates double strand break, is clearly seen.

[4] = Photo-induced dissociation of the cisplatin unit in tris buffer monitored by emission; assay type: physicochemical
Description: One of the key issues is the photodissociation level of the Pt moiety from the compounds described herein. The triplet states of the chromophores before and after photo-release the drug or upon binding with αvβ3 isoform were measured. Based on the synthetic protocols described herein, La (lanthanum) and Gd (gadolinium) analogs can be synthesized to measure the triplet states of the chromophores as well. The measurements of the triplet states of these chromophores phosphorescence and their phosphorescence lifetime was undertaken at low temperature (77K). The photodissociation kinetics of PtEuL were investigated by monitoring the emission spectrum with different irradiation times of UVA/NIR (light dosage=4 J cm^−2). The plot of responsive and initial emission intensity at 615 nm (^5D0→^7F2) vs time will be fitted in the exponential growth and decay equation to obtain the pseudo-first order rate constant.
The linear light induced dissociation of PtGdL in tris buffer (20 mM Tris base, 50 mM NaCl, pH 7.4) was monitored by determination of the emission intensity of solution of PtGdL in tris buffer with different light dosage of 365 nm UV light. In general, 3 mL of the solution of PtGdL (3 μM in tris buffer) in a 3.5 mL quartz cuvette was irradiated with a 365 nm UV lamp (5 mW) with stirring. The emission spectra of the solution were recorded at different time points (0, 1, 3, 5, 7, 10, 15, 20, 30, 45, 60, 75 and 90 min).
(Ln=Eu or Gd). The solution-state electronic adsorption and emission spectra of all the complexes and the ligand were recorded at 298 K (FIGS. 28A-28D). The EuL complex is the product of PtEuL after photo-dissociation and was used to monitor the photo-dissociation of [Pt—(NH3)2Cl]^+ from PtEuL. […] The photo-dissociation of PtEuL (3 μM in Tris-buffer, pH=7.4, 50 mM NaCl) was monitored by the variation of the Eu emission (λem=615 nm, ^5D0→^7F2) with the irradiation time. […] The pseudo-first order rate constant k was determined to be 0.53 min^−1 under these experimental conditions (FIG. 28D).

[5] = tested on: HeLa cells; test: Dark and photo cytotoxicity of RuEuL against HeLa cells; assay type: cell-based, human
Description: To determine the potential of RuEuL as a photo-controlled prodrug cell cytotoxicity studies were performed on human cervical cancer (HeLa) cells, and EuL as control (FIGS. 25A and 25B). Cells were incubated 6 hours in the dark before irradiation (488 nm, 1 J); dark controls were run in parallel.

[6] = tested on: Plasmid DNA; test: Circular dichroism of plasmid DNA with PtEuL in dark; assay type: binding; details: 50 μM, 37° C., 12 h
Description: as §1

[7] = tested on: A549; test: Dark cytotoxicity of Eu(III) complexes on A549 cells; assay type: cell-based
[8] = tested on: HeLa; test: Dark cytotoxicity of Eu(III) complexes on HeLa cells; assay type: cell-based
[9] = tested on: Plasmid DNA; test: Agarose gel electrophoresis of plasmid DNA with RuEuL / EuL; assay type: biochemical; details: 20 μM
Description: Furthermore, the interaction of photo-activated RuEuL with DNA was examined by agarose gel electrophoresis (FIG. 24). Plasmid DNA (22.5 μg/mL in Tris/EDTA (TE) buffer) was incubated with the compounds (20 μM), irradiated by 488 nm light (dose 50 J m^−2) or not (control) and then subjected to 1% agarose gel electrophoresis. The separated DNA was stained with GelRed Nucleic Acid Stain (BIOTIUM) and imaged using Tanon 1600 Gel Imaging System (Tanon Science & Technology Co., Ltd).

[10] = mean ± SD of three independent experiments

Compound | concentration at which red emission was observed in the cell ([1]; 24 hours incubation, 30 min intermittent two-photon excitation 730 nm) | cell damage and red emission on 488 nm laser irradiation [2] | DNA photocleavage activity [3] | pseudo-first order rate constant k (I/I0 @ 615 nm vs. time) ([4]; 3 μM in Tris-buffer pH 7.4, 50 mM NaCl, UVA 365 nm) | pseudo-first order rate constant k for the dissociation of the cisplatin unit ([4]; tris buffer pH 7.4, UV 365 nm, 5 mW) | IC50 ([5]; HeLa, 6 hours in the dark then irradiation (488 nm, 1 J), read-out: light IC50) | direct binding with DNA in dark (CD) [6] | IC50 [7, 10] | IC50 [8, 10] | red emission from treated cells ([1]; identical conditions, up to 100 μM) | interaction with DNA [9] | toxicity towards HeLa cells ([5]; control) | toxicity towards A549 ([7]; identical conditions) | toxicity towards HeLa ([8]; identical conditions)
O.O=[N+]([O-])[O-].[Eu+3].[NH3+][Pt-2]([NH3+])([Cl])[n+]1ccc(C(=O)Nc2ccc(C#Cc3ccnc(CN4CCN(CC(=O)[O-])CCN(CC(=O)[O-])CCN(CC(=O)[O-])CC4)c3)cc2)cc1 [PtEuL] | > 2 µM | no red emission or cell death | strong DNA photocleavage activity | 0.53 min⁻¹ | 0.053 min⁻¹ | 22.9 µM | can directly bind to DNA and unwind its helix | 49.5 ± 0.1 µM | 22.5 ± 0.5 µM |  |  |  |  | 
O.O=C([O-])CN1CCN(CC(=O)[O-])CCN(Cc2cc(C#Cc3ccc(NC(=O)c4ccncc4)cc3)ccn2)CCN(CC(=O)[O-])CC1.[Eu+3] [EuL] |  |  | not at all |  |  |  |  |  |  | no red emission was detected | does not interact with DNA | almost no toxicity | no toxicity | no toxicity
